Results on 13 molecules are retold here after the Deep4Chem optical property database.

Values joined by “and” are separate entries in the source; they are usually repeats but may differ in a detail not shown here. Equal values may be shown once.

This data set can be described thus: solvent given as SMILES.

For the setting “in ClC(Cl)Cl”, `c1cc2cc(c1)c1ccc3c(c1)c1cc(ccc1[C@]14OCCO[C@]31OCCO4)c1ccc3c(c1)c1cc(ccc1[C@]14OCCO[C@]31OCCO4)c1cccc2c1` registered an emission maximum of 347 nm.
For the molecule `CCC1(CC)c2cc(B(c3c(C)cc(C)cc3C)c3c(C)cc(C)cc3C)ccc2-c2c1c1c(c3c2C(CC)(CC)c2cc(B(c4c(C)cc(C)cc4C)c4c(C)cc(C)cc4C)ccc2-3)C(CC)(CC)c2cc(B(c3c(C)cc(C)cc3C)c3c(C)cc(C)cc3C)ccc2-1`, the emission maximum is, setting by setting: (in C1CCOC1) 386 nm; (in CC#N) 403 nm; (in CC(C)=O) 396 nm; (in CCCCCC) 382 nm; (in Cc1ccccc1) 385 nm.
As for `CCOC(=O)c1c(-c2cc3ccccc3oc2=O)nn(-c2ccc(C)c(C)c2)c1C(=O)OCC`, the emission maximum (in ClCCl) was 408 nm.
Take `COc1cc2cc(-c3ccc(C(=O)OCOC(C)=O)cc3C(=O)OCOC(C)=O)oc2cc1N1CCOCCOCCN(c2cc3oc(-c4ccc(C(=O)OCOC(C)=O)cc4C(=O)OCOC(C)=O)cc3cc2OC)CCOCCOCC1`: the emission maximum (in O) is given as 546 nm.
The molecule `c1ccc2c(c1)Oc1ccccc1N2c1ccc2c(c1)c1cc(N3c4ccccc4Oc4ccccc43)ccc1c1nc3ccccc3nc21` registered an emission maximum (in Cc1ccccc1) of 614 nm.
For the molecule `F[B-]1(F)n2c(nc(-c3ccccc3)c2-c2ccccc2)-c2cccc[n+]21`, the emission maximum (in C1CCCCC1) was determined as 517 nm; the emission maximum (in C1CCOC1) is given as 537 nm; the emission maximum (in C1COCCO1) is listed as 510 nm; the emission maximum (in CC#N) was 543 nm and 498 nm; the emission maximum (in CCCCCC) was 510 nm and 515 nm; the emission maximum (in CO) was 525 nm and 534 nm. Besides, the emission maximum reads like this: (in ClC(Cl)Cl) 520 nm and 528 nm; (in ClCCl) 528 nm.
Consider `CCn1c2ccccc2c2cc(/C=C/C(=O)c3ccc4c(c3)c3cc(C(=O)/C=C/c5ccc6c(c5)c5ccccc5n6CC)ccc3n4CC)ccc21`, for which the emission maximum is recorded as 430 nm (in C1CCCCC1); 474 nm (in C1CCOC1); 491 nm (in CC#N); 476 nm (in CC(C)=O); 521 nm (in CCO); 475 nm (in CCOCC). The emission maximum is, setting by setting: (in CN(C)C=O) 487 nm; (in CO) 542 nm; (in CS(C)=O) 493 nm; (in ClC(Cl)(Cl)Cl) 454 nm; (in ClC(Cl)Cl) 475 nm.
Take `CCCC1(CCC)c2cc(-c3ccc(C(C)(C)CC)cc3)ccc2-c2ccc(-c3ccc(C(C)(C)CC)cc3)cc21`: where the note is “in C1CCCCC1”, the emission maximum was 368 nm.
Regarding `O=P1(c2ccccc2)c2ccc(N3c4ccccc4Oc4ccccc43)cc2-c2cc(N3c4ccccc4Oc4ccccc43)ccc21`, the emission maximum is, setting by setting: (in Cc1ccccc1) 535 nm; (in c1ccc2c(c1)c1ccccc1n2-c1ccc(-c2ccc(-n3c4ccccc4c4ccccc43)cc2)cc1) 551 nm.
In turn, `COc1ccc(C2=[N+]3C(=Nc4c(-c5cc(OC)c(OC)c(OC)c5)c(Br)c(-c5ccc(OC)cc5)n4[B-]3(F)F)C(c3cc(OC)c(OC)c(OC)c3)=C2Br)cc1` displayed an emission maximum (in Cc1ccccc1) of 723 nm.
Turning to `O=C(O)COc1ccc2[nH]c3c(c2c1)CCCC3=O`, the emission maximum reads like this: (in C1CCOC1) 419.81 nm; (in C1COCCO1) 404.04 nm; (in CC#N) 419.23 nm; (in CCCCCCCCCCCCO) 449.42 nm; (in CCCCCCCCCCO) 449.81 nm; (in CCCCCCCCO) 456.15 nm. The same molecule gave an emission maximum (in CCCCCCO) of 469.04 nm; an emission maximum (in CCCCO) of 464.23 nm; an emission maximum (in CCO) of 472.12 nm; an emission maximum (in CCOC(C)=O) of 410 nm; an emission maximum (in CN(C)C=O) of 430 nm; an emission maximum (in CO) of 491.73 nm. Also, the emission maximum is, setting by setting: (in CS(C)=O) 426.92 nm; (in Cc1ccccc1) 400.96 nm; (in O) 507.69 nm; (in c1ccccc1) 399.81 nm.
Where the note is “in C1CCOC1”, `F[B-]1(F)OC(c2ccccc2)=C(c2ccccc2)c2sc3ccccc3[n+]21` yielded an emission maximum of 446 nm.
As for `Cc1ccc(C#Cc2ccc3ccc(=O)oc3c2)cc1`, the emission maximum (in CC#N) was determined as 440 nm.
